“Also recorded” adds a separate entry of the source.
Tests used:
Plasma protein [1] = experiment: Plasma protein binding, human; type: in vitro ADME
Procedure: (§7) In vitro ADME studies (plasma protein binding, CYP inhibition, microsomal stability, plasma stability and hERG inhibition) were performed by New drug development center though standard protocols.

Plasma protein [2] = experiment: Plasma protein binding, rat; type: in vitro ADME
Procedure: as §7

Plasma stability, human = type: in vitro ADME
Plasma stability, rat = type: in vitro ADME
[3] = Liver microsomal stability, human; type: in vitro ADME
Procedure: as §7

[4] = Liver microsomal stability, rat; type: in vitro ADME
[5] = Liver microsomal stability, mouse; type: in vitro ADME
CYP1A2 = molecular target: T1, CYP1A2 (Homo sapiens, UniProt P05177); experiment: CYP inhibition CYP1A2; type: in vitro ADME
T1 sequence (P05177 1-516): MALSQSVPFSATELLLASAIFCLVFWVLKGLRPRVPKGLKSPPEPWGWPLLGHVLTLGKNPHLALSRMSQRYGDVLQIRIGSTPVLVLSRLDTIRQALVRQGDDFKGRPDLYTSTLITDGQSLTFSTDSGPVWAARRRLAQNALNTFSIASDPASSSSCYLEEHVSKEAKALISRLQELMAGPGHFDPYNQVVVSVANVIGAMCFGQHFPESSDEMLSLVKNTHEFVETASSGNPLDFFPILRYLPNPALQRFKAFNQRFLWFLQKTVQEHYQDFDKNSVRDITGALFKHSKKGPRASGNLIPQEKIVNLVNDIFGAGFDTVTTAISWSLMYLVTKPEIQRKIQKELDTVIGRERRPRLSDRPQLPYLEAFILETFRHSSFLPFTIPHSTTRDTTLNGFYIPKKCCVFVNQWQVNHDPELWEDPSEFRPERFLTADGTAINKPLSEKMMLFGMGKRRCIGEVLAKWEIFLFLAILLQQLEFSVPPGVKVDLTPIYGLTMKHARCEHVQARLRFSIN
Procedure: as §7

CYP2C9 = CYP2C9 (Homo sapiens, UniProt P11712); experiment: CYP inhibition CYP2C9; type: in vitro ADME
Chain of CYP2C9 (P11712 whole entry): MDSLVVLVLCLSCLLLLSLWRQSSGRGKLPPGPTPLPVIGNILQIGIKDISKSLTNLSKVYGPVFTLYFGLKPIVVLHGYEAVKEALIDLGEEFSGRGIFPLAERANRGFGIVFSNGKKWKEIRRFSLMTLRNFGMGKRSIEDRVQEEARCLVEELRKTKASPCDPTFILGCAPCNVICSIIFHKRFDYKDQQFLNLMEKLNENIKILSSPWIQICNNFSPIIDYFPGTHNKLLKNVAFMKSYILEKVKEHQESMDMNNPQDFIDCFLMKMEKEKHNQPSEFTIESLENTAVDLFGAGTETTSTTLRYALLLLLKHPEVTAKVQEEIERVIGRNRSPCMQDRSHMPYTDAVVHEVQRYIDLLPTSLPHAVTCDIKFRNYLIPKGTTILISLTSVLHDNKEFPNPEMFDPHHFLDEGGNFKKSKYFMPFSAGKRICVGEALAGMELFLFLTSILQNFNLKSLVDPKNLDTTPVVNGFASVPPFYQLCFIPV
Procedure: as §7

CYP2C19 = CYP2C19 (Homo sapiens, UniProt P33261); experiment: CYP inhibition CYP2C19; type: in vitro ADME
Chain of CYP2C19 (P33261 whole entry): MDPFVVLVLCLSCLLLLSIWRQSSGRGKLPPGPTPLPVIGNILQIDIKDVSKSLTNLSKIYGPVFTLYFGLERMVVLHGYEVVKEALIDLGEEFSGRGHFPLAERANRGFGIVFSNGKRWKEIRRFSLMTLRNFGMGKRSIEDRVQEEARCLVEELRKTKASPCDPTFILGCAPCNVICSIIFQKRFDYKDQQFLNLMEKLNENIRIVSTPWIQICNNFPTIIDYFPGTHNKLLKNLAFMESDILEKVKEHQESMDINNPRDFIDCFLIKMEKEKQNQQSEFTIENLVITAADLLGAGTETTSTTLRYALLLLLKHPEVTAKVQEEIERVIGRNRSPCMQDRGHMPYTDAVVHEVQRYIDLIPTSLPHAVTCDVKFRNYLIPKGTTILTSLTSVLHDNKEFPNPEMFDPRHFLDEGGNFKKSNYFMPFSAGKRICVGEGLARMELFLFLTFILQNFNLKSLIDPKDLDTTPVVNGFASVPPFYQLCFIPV
Procedure: as §7

CYP2D6 = CYP2D6 (Homo sapiens, UniProt P10635); experiment: CYP inhibition CYP2D6; type: in vitro ADME
Chain of CYP2D6 (P10635 whole entry): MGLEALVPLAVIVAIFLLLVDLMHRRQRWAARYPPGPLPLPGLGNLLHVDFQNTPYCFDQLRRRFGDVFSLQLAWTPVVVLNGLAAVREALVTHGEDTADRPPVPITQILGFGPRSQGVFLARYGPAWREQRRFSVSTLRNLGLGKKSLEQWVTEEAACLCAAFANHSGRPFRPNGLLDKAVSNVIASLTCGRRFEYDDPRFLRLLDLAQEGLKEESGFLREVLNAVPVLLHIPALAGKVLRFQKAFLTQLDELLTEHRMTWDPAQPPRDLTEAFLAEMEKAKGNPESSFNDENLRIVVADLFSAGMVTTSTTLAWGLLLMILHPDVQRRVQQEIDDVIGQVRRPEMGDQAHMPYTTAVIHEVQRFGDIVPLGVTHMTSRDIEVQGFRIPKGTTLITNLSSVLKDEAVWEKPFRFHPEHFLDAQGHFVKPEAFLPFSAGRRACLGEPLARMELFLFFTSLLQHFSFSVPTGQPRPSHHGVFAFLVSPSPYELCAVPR
Procedure: as §7

hERG ion channel = hERG ion channel (Homo sapiens, UniProt Q12809); experiment: hERG inhibition (in vitro ADME); conditions: in vitro ADME analysis, FIG. 2B
Chain of hERG ion channel (Q12809 whole entry): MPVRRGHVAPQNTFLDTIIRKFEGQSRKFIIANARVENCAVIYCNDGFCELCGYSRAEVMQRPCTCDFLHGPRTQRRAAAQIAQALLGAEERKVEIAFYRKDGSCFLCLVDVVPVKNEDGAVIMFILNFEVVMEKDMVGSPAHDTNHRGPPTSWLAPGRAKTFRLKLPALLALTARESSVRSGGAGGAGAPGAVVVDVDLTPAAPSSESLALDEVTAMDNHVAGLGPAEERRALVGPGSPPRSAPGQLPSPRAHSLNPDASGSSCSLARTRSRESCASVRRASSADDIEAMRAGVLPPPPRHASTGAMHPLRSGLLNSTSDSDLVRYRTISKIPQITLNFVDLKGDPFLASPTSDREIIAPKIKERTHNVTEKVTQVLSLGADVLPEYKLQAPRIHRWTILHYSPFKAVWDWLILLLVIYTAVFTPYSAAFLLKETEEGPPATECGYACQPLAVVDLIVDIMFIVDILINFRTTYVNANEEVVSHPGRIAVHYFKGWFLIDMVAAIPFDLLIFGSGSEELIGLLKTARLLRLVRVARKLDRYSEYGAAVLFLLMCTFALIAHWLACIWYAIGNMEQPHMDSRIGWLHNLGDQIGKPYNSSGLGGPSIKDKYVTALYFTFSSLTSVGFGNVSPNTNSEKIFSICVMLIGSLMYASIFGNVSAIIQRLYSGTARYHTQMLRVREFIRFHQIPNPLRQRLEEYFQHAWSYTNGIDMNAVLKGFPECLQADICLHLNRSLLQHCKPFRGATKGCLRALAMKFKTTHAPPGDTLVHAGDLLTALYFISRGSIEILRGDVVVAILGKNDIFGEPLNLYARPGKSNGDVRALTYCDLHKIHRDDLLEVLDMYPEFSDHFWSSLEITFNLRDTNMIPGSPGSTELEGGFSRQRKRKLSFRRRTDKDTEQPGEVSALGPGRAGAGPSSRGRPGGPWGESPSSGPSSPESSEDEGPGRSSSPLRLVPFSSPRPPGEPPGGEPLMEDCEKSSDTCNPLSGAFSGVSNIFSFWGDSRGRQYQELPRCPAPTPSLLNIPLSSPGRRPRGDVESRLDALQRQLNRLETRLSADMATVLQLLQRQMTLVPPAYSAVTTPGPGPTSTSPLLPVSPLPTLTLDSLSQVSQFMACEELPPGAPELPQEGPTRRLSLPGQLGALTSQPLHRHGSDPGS

[6] = tested on: progerin expression in progerin-transfected 293 cells; experiment: Progerin expression analysis in progerin-transfected 293 cells (Western blot); type: cell-based; conditions: 24 hours, FIG. 1D
Procedure: HEK293 cell line, obtained from ATCC, were maintained in liquid medium (DMEM) containing 10% FBS and 1% antibiotics at 37° C.
Whole-cell lysates were prepared in RIPA.
15 μg of cell extracts were separated by SDS-PAGE and transferred onto a PVDF membrane.
The membrane was incubated for 1 h to overnight at 4° C. with primary antibody, followed by reaction with a secondary antibody at room temperature for 1 h.
Peroxidase activity was detected by chemiluminescence with ECL kit (Intron, Seoul, Korea) as recommended by its manufacturer.

HGPS cells = experiment: Immunofluorescence staining of HGPS cells (nuclear morphology, progerin, H3K9me3); type: cell-based, Human
Procedure: (§1) Human fibroblast cells from HGPS patients (AG03198, person; AG03199; person), WS patients (AG06300, person; AG03141, person; AG00780, person) and controls (GM 00038, person) were obtained from the Coriell Cell Repositories (Camden, N.J., USA) and were maintained in EMEM, containing 15% FBS, 2 mM glutamine or HEMEM with 26 mM HEPES without antibiotics.
(§2) Cells were seeded on a cover glass and transfected with the indicated vectors.
(§3) After fixing with 100% methanol or 1% paraformaldehyde (PFA) for 1 h at 4° C., cells were incubated with blocking buffer (PBS+anti-human-Ab; 1:400) for 1 h.
(§4) After washing with PBS twice, cells were incubated with anti-Lamin A/C, Progerin or H3K9Me3 in blocking buffer (1:200) overnight and sequentially with anti-goat Ab-FITC or anti-rabbit Ab-rhodamin in blocking buffer (1:500) for 7 h and mounted, and nucleus was stained with DAPI. Thereafter Immunofluorescence signal was detected by fluorescence microscopy (Zeiss and Logos).
(§5) For counting nuclear deformed cell, obtained immunofluorescence images were used. Nuclear membrane showing abnormalities, dependent on Lamin A staining, were counted from randomly selected field. Counted cells were calculated percentage.

WS cells = experiment: Immunofluorescence staining of Werner syndrome (WS) patient cells (nuclear morphology, proliferation, H3K9me3); type: cell-based, Human
Procedure: as §1, §2, §3, §4, §5
To measure the cell proliferation, DAPI stained cells were counted from immunofluorescence images.

[7] = tested on: collagen 1A expression in HaCaT cells; experiment: Collagen 1A expression in HaCaT cells (Western blot); type: cell-based, human; conditions: 2 or 5 μM, 24 hours, FIG. 5A
Procedure: (§6) Human keratinocyte HaCaT cells and normal fibroblast 9N (GM 00038, person) and N46 (AG13299, person) were treated with 2 or 5 μM SLC-D011 and incubated for 24 hours and then the amount of collagen 1A expression was confirmed in HaCaT cells and fibroblasts was confirmed.

[8] = tested on: collagen 1A expression in normal fibroblast; experiment: Collagen 1A expression in normal fibroblasts 9N and N46 (Western blot); type: cell-based, human; conditions: normal fibroblast 9N and N46, 2 or 5 μM, 24 hours, FIG. 5B
Procedure: as §6

Water solubility = type: physicochemical
[9] = Stability in monoolein-based solution on heating and sonication (LC-MS); type: physicochemical; conditions: heating at 80° C. and sonication, FIG. 3B

## CC1(C)Oc2cc3oc(=O)ccc3cc2C[C@@H]1OC/C=C/c1ccccc1 [SLC-D011, (7S)-(+)-8,8-dimethyl-7-(3-phenyl-allyloxy)-7,8-dihydro-6H-pyrano[3,2-g]chromen-2-one]
Plasma protein [1]
  Plasma protein binding Human (% Bound): 99.9 % Bound
Plasma protein [2]
  Plasma protein binding Rat (% Bound): 99.8 % Bound
Plasma stability, human; 30 min
  Plasma stability (% remaining) Human 30 min: >100 % remaining
Plasma stability, human; 120 min
  Plasma stability (% remaining) Human 120 min: >100 % remaining
Plasma stability, rat; 30 min
  Plasma stability (% remaining) Rat 30 min: 83.6 % remaining
Plasma stability, rat; 120 min
  Plasma stability (% remaining) Rat 120 min: 75.1 % remaining
[3]
  Liver microsomal stability (% remaining during 30 min) Human (%): 21.5%
[4]
  Liver microsomal stability (% remaining during 30 min) Rat (%): 17.4%
[5]
  Liver microsomal stability (% remaining during 30 min) Mouse (%): 59.7%
CYP1A2
  CYP inhibition CYP1A2: 81.6
CYP2C9
  CYP inhibition CYP2C9: 78.4
CYP2C19
  CYP inhibition CYP2C19: 28.8
CYP2D6
  CYP inhibition CYP2D6: 91.7
hERG ion channel
  hERG ion channel inhibition: severe hERG inhibition was not observed
[6]
  progerin expression: inhibiting progerin expression; also recorded: obviously suppresses progerin expression
HGPS cells; HGPS cells incubated 48 hr, FIG. 1E
  nuclear abnormality of HGPS cells: improved nuclear abnormality of HGPS cells
HGPS cells; HGPS cells incubated 48 hr, progerin staining, FIG. 1E
  progerin expression in HGPS cells: reduces progerin expression
HGPS cells; immunostaining, FIG. 1F
  H3K9me3 expression in HGPS cells: induced H3K9me3 expression
WS cells; WS cells incubated 48 hr, FIG. 4F
  nuclear morphology of WS cells: improved nuclear morphology
WS cells; WS cells incubated 48 hr, FIG. 4G
  H3K9me3 expression in WS cells: induced expression of H3K9me3
WS cells; WS patient cells, FIG. 4F
  cell proliferation of WS cells: improved nuclear morphology and cell proliferation
[7]
  collagen expression in keratinocytes: increasing collagen expression
[8]
  collagen expression in fibroblasts: increasing collagen expression
Water solubility
  water solubility: very low water solubility
[9]
  stability in solution on heating and ultrasonic treatment: stable without being decomposed even by heating and ultrasonic treatment

From patent publication US11008332B2, “Pharmaceutical composition for preventing or treating aging-related diseases containing decursin derivative as active ingredient” (PRG S&TECH INC., priority 2017, dated 2021)
